In patent US20100221398A1, “PRESERVATIVE” (priority 2007, published 2010):

Experiments:
A. niger conidiospores = test: Mould growth in bottles containing 1 mM 4-MCA + 1 mM putative inhibitor; type: cell-based, Aspergillus niger; conditions: 1 mM 4-MCA + 1 mM compound
Experimental: (§1) All compounds were tested to see if they prevented the degradation of 4-MCA by adding 10^6 A. niger conidiospores/ml to ACM medium at pH 4.0 containing 1 mM 4-methylcinnamic acid+1 mM putative inhibitor. Bottles were incubated at 28° C. and shaken at 120 rpm on an orbital shaker. Samples were taken at 5 and 72 hours.
Furthermore, other compounds generally more mould-toxic than the compounds listed in Table 2, were not able to inhibit mould growth when allied with 4-MCA at 1 mM e.g. (2,4-decadienal).

[1] = test system: PadA1 activity in A. niger conidiospores; test: 4-MCA cloud disappearance (OD 600 nm) assay for PadA1 activity in mould spores; type: cell-based, Aspergillus niger; conditions: 1 mM 4-methylcinnamic acid + 1 mM putative inhibitor, 10^6 conidiospores/ml, ACM pH 4.0, 28 C, samples at 5 and 72 hours
Experimental: FIG. 2—illustrates the disappearance of the dense cloud of 4-methylcinnamic acid after addition of A. niger spores. The strain of A. niger used is A. niger N402. 10^6 A. niger conidiospores/ml were added to ACM medium (Aspergillus Complete Medium—which contains per one litre of water, 20 g glucose, 1.5 g casamino acids, 2 g bacteriological peptone, 1.5 g yeast extract, 6 g […], 0.52 g potassium chloride, 0.52 g magnesium sulphate heptahydrate, 1.52 g potassium orthophosphate, 1 mg ferrous sulphate, 1 mg zinc sulphate) at pH 4.0 containing 1 mM 4-methylcinnamic acid at time 0. Replicate cultures of 10 mls medium in 30 ml sealed bottles were incubated at 28° C. and shaken at 120 rpm on an orbital shaker. Each point represents the mean value of two bottles removed, sampled, and tested in a spectrophotometer at 600 nm;
10^6 A. niger conidiospores/ml were added to ACM medium at pH 4.0 containing 1 mM 4-methylcinnamic acid at time 0 (control—circles). Replicate cultures contained 1 mM 4-methylcinnamic acid+1 mM cinnamaldehyde (squares). Bottles were incubated at 28° C. and shaken at 120 rpm on an orbital shaker.
In the examples below a carboxylic acid similar to sorbic acid was used as it has unexpected properties which allow it to be easily assayed. The acid used was 4-methylcinnamic acid (4-MCA), which like sorbic acid is degraded by A. niger spores.
Unexpectedly 4-MCA forms a dense white cloud when added to water or growth media for moulds (such as ACM). The opacity of the cloud, when measured at an OD of 600 nm, is directly proportional to the concentration of 4-MCA. This makes it easy to assay for changes in 4-MCA levels. Up until now degradation of 4-MCA and sorbic acid has been determined through the detection of the volatile products produced after decarboxylation. The volatile products can be detected by using GCMS (Gas Chromatography/Mass Spectrometry), which is a slow and time consuming process.
It is understood that PadA1 in the germinating mould spores degrades the 4-MCA causing the white cloud to progressively disappear. Cloud disappearance is also accompanied by appearance of 4-methylstyrene in the headspace above the liquid medium (as illustrated in FIG. 3), which is measured by GCMS.
as §1

[2] = test system: A. niger N402 conidiospores; test: MIC determination in ACM medium pH 4.0; type: cell-based, Aspergillus niger; conditions: 1000 A. niger N402 conidiospores/ml, ACM pH 4.0, 28 C, 28 days, triplicate
Experimental: The possibility that the compounds found to inhibit 4-MCA degradation were acting as toxic agents was examined, by determination of their MIC (Minimum Inhibitory Concentration) values. The MIC value is the lowest concentration of inhibitor that will completely prevent growth of a microbe. In this case, MIC values were determined by preparation of a triplicate series of bottles of ACM medium (pH 4.0 10 mls) each bottle containing progressively higher concentrations of an inhibitor. Bottles were inoculated with 1000 A. niger N402 conidiospores/ml and were incubated at 28° C. for 28 days. The MIC was the lowest concentration of inhibitor preventing mould growth in all three replicates, and any other higher concentration of inhibitor.

[3] = test system: Aspergillus niger strain N402 conidiospores; test: Spoilage of synthetic soft drink (ACM pH 4.0) with 300 ppm sorbic acid; type: cell-based; conditions: 300 ppm sorbic acid (2.68 mM) without PadA1 inhibitor, 28 days at 28 C
Experimental: Tests were carried out using ACM medium, pH 4.0, as a synthetic soft drink. Sorbic acid was added to the ACM, synthetic soft drink, at 300 ppm, which is the maximum level permitted in Europe.
The method used involved placing 10 ml of ACM pH 4.0+300 ppm sorbic acid (2.68 mM) in glass bottles (all experiments were carried out in triplicate) and inncoculating each 10 mls with 1000 conidiospores per ml of Aspergillus niger strain N402. Growth was measured after 28 days incubation at 28° C. PadA1 inhibitors of Formula I were added at 0, 0.025 mM, 0.05 mM, 0.1 mM, 0.15 mM, 0.2 mM, 0.3 mM, 0.4 mM, 0.5 mM, 0.6 mM, 0.8 mM, 1 mM.

Structure (SMILES): CCC=CC=CC=O [2,4-Heptadienal]
- mould growth in bottles with 4-MCA + compound (A. niger conidiospores): not

Structure (SMILES): CCCCCC=CC=CC=O [2,4-decadienal]
- inhibition of degradation of 4-MCA by germinating conidiospores of A. niger [1]: does not block PadA1 activity
- MIC (Minimum Inhibitory Concentration), comparison in words [2]: lower MIC than any of the compounds listed on Table 2
- mould growth in bottles with 4-MCA + compound (A. niger conidiospores): Mould growth occurred

Structure (SMILES): O=CC=Cc1ccccc1 [Cinnamaldehyde]
- inhibition of degradation of 4-MCA by germinating conidiospores of A. niger [1]: inhibits the degradation

Structure (SMILES): O=C(O)C#Cc1ccccc1 [Phenyl propiolic acid]
- inhibition of degradation of 4-MCA by germinating conidiospores of A. niger [1]: inhibited degradation

Structure (SMILES): O=CC#Cc1ccccc1 [phenyl propargyl aldehyde]
- inhibition of degradation of 4-MCA by germinating conidiospores of A. niger [1]: inhibited degradation

Structure (SMILES): CC=CC=CC(=O)O [sorbic acid, 2,4-hexadienoic acid]
- prevention of spoilage by A. niger conidiospores of the synthetic soft drink, sorbic acid alone [3]: insufficient to prevent spoilage
